# Data published in patent publication US20090036527A1, “Therapeutic Application Of Leonurine In Treating Cardiomyopathy” (priority 2007, published 2009).
# Like-named read-outs stand apart in the source and are kept apart here.
# Tests used:
# [1] = Acta Physiologica Sinica 2007; cited from earlier work
# myocardial cells [2] = test: Myocardial cell viability (MTT) after hypoxia; type: cell-based, rat; details: hypoxia 6 hours; 10^−6 mol/L; vs vehicle (MI) group; p<0.01
# Description: The heart sample of 3 day old Sprague-Dawley (SD) rat (first generation) was washed in PBS (phosphate balanced solution) under sterilized condition. The sample is digested in 0.08% pancreatic enzyme solution 37 degree C for 10 minutes in a flask, wherein the solution was stirred constantly. In order to stop the digestion, serum was added into the flask and mixed with the solution. The digesting process was repeated 8 times, and the supernatant of each digestion was collected. The supernatant was centrifuged 2,000/minute for 5 minutes, and the myocardial cells were collected each time. The myocardial cell density was adjusted to 10^6/sample and cultured in DMEM containing 10% calf serum for 3 days.
# The cultured myocardial cells were divided into the following groups:
# Control group, no Leonurine treatment, no hypoxia process.
# Hypoxia (vehicle, MI) group, no Leonurine treatment, under hypoxia condition for 6 hours.
# Leonurine group, under hypoxia condition for 6 hours then cultured with corresponding treatment of Leonurine 10^−6 mol/L. […]
# Myocardial cell viability was assessed by MTT method, which is the measurement of the reduction of 3-(4,5-dimethylthiazol-2-yl)-2,5-diphenyltetrazolium bromide (MTT). […] The amount of formazan was measured using a microplate reader at spectrum 570 nm.
# myocardial cells [3] = test: LDH leakage (release) from hypoxia injured myocardial cells; type: cell-based, rat; details: hypoxia 6 hours; 10^−6 mol/L; vs vehicle (hypoxia) group; p<0.01
# Description: Myocardial cell samples were obtained from the same procedure of Example 1A, the experiment groups were divided and hypoxia experiments were performed on Control group (no Leonurine treatment, no hypoxia/reoxygenation process), vehicle (hypoxia) group (no Leonurine treatment, under hypoxia condition for 6 hours), and Leonurine group (10^−6 mol/L). Myocardial cells were obtained from each sample (10^6 myocardial cells/sample) from the Control group, vehicle (hypoxia) group, Leonurine group. The cells were lysed under sterilized condition, and LDH (Lactate Dehydrogenase) contents in each sample of the cells were tested by pyruvic acid production method, using LDH content in Control sample cells as standard of 100%. The rate of LDH leakage (release) was calculated, which is the difference between LDH content of Control group samples and vehicle (hypoxia) group or Leonurine group or Losartan group.
# myocardial cells [4] = test: Catalase activity of myocardial cells under hypoxia; type: cell-based, rat; details: 10^−6 mol/L
# Description: Myocardial cell samples were obtained from the same procedure of Example 1B, and the experiments were performed same as Example 1B with the same dosages and same conditions. Catalase can catalyze oxygen free radicals, its activity in Leonurine treated hypoxia cells groups is elevated. (FIG. 3)
# myocardial cells [5] = test: SOD and CuZn-SOD activities of myocardial cells under hypoxia; type: cell-based, rat; details: 10^−6 mol/L
# Description: Myocardial cell samples were obtained from the same procedure of Example 1B, and the experiments were performed same as Example 1B with the same dosages and same conditions. SOD (superoxide dismutase) plays an important role in balancing oxidant and antioxidant system in an organism. SOD can eliminate superoxide free radicals, thereby protect cells from injury. The activities of SOD and CuZn-SOD in Leonurine treated hypoxia cells are elevated. […] (FIG. 4)
# myocardial cells [6] = test: MDA content of myocardial cells under hypoxia (TBA method); type: cell-based, rat; details: 10^−6 mol/L
# Description: Myocardial cell samples were obtained from the same procedure of Example 1B, and the experiments were performed same as Example 1B with the same dosages and same conditions. Oxygen free radicals produced by enzyme and non enzyme systems in an organism attack poly unsaturated fatty acid in biomembrane, inducing lipid peroxidation and producing MDA (malondialdehyde). MDA can react with thiobarbituric acid (TBA), forms red product, which can be detected in spectrophotometer at 532 nm. The level of MDA can be used to indicate lipid peroxidation, thereby reflect condition of cell injury.
# myocardial ischemic rat [7] = test: Infarct size (TTC staining) and mortality in MI rat model (coronary artery ligation); type: in vivo; details: MI rats, 7.5 or 15 mg/Kg/day intraperitoneal, vs saline
# myocardial ischemic rat [8] = test: Plasma LDH and CK levels in MI rat model; type: in vivo; details: MI rats; 7.5 or 15 mg/Kg/day intraperitoneal; p<0.05
# Description: MI injuries myocardial cells and CK and LDH levels are increased in the serum of the animals. After MI, the animal plasma CK level and LDH level were measured, and Leonurine's effects were assessed. Same MI models in same rat groups as Experiment 2A were established. Plasma CK levels were detected with diagnostic kit (NJBI, China) according to the instructions. LDH were determined colorimetrically with a spectrophotometer. […] (FIG. 7 and FIG. 8)
# myocardial ischemic rat [9] = test: Plasma MDA level and left ventricle SOD activity in MI rat model; type: in vivo; details: MI rats; 7.5 or 15 mg/Kg/day intraperitoneal
# From the text: MDA reflect lipid peroxidation level in MI injuries myocardial cells. SOD plays an important role in balancing oxidant and antioxidant system in an organism. SOD can eliminate superoxide free radicals, thereby protect cells from injury. Same MI models in same rat groups as Experiment 2A were established. Plasma MDA level and left ventricle SOD activity were detected. […] (FIG. 9 and FIG. 10)
# Bcl-2 and Bax = Bcl-2 and Bax mRNA and protein levels in MI rat model; type: in vivo; details: MI rats; 7.5 or 15 mg/Kg/day intraperitoneal
# From the text: Bax is a gene promoting cell apoptosis. Bcl-2 is an anti apoptosis gene. Same MI models in same rat groups as Experiment 2A were established. mRNA and protein levels of Bax and Bcl-2 were detected. […] (FIG. 11 and FIG. 12)
# [10] = tested on: animal heart failure model; test: Cardiac function by catheterization in rat heart failure model; type: in vivo; details: HF rats, 8 weeks
# Description: (§1) Heart failure (HF) animal model, which was occlusive ligation of anterior descending coronary artery, was employed. All treatment was given via intragastric administration. The experimental period was 8 weeks. HF was induced on day eight by ligation of the left anterior descending coronary artery at approximately 2-3 mm from its origin. Briefly, the rats were anesthetized with 7% choral hydrate (60 mg/kg), endotracheally intubated and mechanically ventilated with room air, respiratory rate 100 breaths/min, tidal volume 2.5 ml with a rodent ventilator (DHX-150, China). ECG was recorded in the anaesthetized animal for a period of one minute using the Animal Mflab200 amplifier (Produced in China) as controls. A left thoracotomy was performed and the third intercostal space was exposed. The proximal left anterior descending coronary artery, which supplies blood to left ventricle of the heart, was ligated at the position 2-3 mm from the aorta with a 5-0 atraumatic suture that was passed through the superficial layers of myocardium, between the left auricle and the cone of pulmonary artery. […] Then incisions were sutured and the chests were closed. Sham operated rats were prepared in the same manner except the left coronary was not ligated. After completion of the surgical procedures, rats were removed from the ventilator and the endotracheal tube removed. The rats were kept warm, given water and food after they were awake from the anesthesia and kept in different cages according to experiment groups. The rats in correspondent experiment groups were given corresponding dosages of Leonurine continuously for 8 weeks, while the rats in control and MI groups were given no Leonurine. Two days after ligation, surviving rats were performed in four groups of rats in random fashion. Group 1: Sham-operated rats. The rats served as controls and received saline throughout the study. Group 2: Heart failure rats. This group consisted of rats with heart failure that received saline. Group 3: Heart failure plus low dose leonorine (15 mg/kg/day). Group 4: Heart failure plus high dose leonorine (30 mg/kg/day). All treatment was given via intragastric administration. The experimental period was 8 weeks. To evaluate the effect of Leonurine on HF, catheterizations to arteries and ventricles are performed to record heat rate (HR), mean aortic pressure (MAP), Left Ventricular Systolic Pressure (LVSP), Left Ventricular End-Diastolic Pressure (LVEDP), peak positive first derivative of left ventricular pressure (+dP/dt), peak negative first derivative of left ventricular pressure (−dP/dt). Data from the measurement of the recording were analyzed to observe the effect of Leonurine. Furthermore, plasma cysteine level and plasma ascorbic acid level were measured by capillary electrophoresis.
# [11] = Plasma Leonurine, cysteine and ascorbic acid levels (capillary electrophoresis) in rat heart failure model; type: in vivo; details: HF rats; for plasma Ascorbic acid level / plasma Cysteine level: 8 weeks; for concentration at 8 weeks: rat, plasma, oral, read-out: plasma Leonurine level
# Description: as §1
# creatine kinase (CK) = details: concentration- and time-dependent; Zhao Wang et al. 2004; cited from earlier work
# [12] = tested on: vascular smooth muscle cells; details: Chen and Kwan, Life Sciences 2001; cited from earlier work
structure (smiles),measurement,setting,value
COc1cc(C(=O)OCCCCNC(=N)N)cc(OC)c1O [Kardigen],anti-oxidative effects,[1],has anti-oxidative effects
same,prevention of ischemia cardiomyopathy,[1],can prevent ischemia cardiomyopathy effectively
COc1cc(C(=O)OCCCCNC(=N)N)cc(OC)c1O [Leonurine],survival rate of myocardial cell (cell viability),myocardial cells [2],significantly increase
same,LDH leaking (release) rate,myocardial cells [3],lower
same,Catalase activity,myocardial cells [4],elevated
same,CuZn-SOD activity,myocardial cells [5],elevated
same,SOD activity,myocardial cells [5],elevated
same,MDA level from lipid peroxidation,myocardial cells [6],inhibited
same,infarct size of myocardium,myocardial ischemic rat [7]; 7 days before and 2 days after ligation,significantly less
same,mortality rate,myocardial ischemic rat [7],not difference
same,plasma CK level,myocardial ischemic rat [8],significantly reduce
same,plasma LDH level,myocardial ischemic rat [8],significantly reduce
same,left ventricle SOD activity,myocardial ischemic rat [9],increase
same,plasma MDA level,myocardial ischemic rat [9],significantly reduce
same,Bax mRNA expression,Bcl-2 and Bax,significantly reduce
same,Bax protein expression,Bcl-2 and Bax,significantly reduce
same,Bcl-2 mRNA expression,Bcl-2 and Bax,increase
same,Bcl-2 protein expression,Bcl-2 and Bax,increase
same,HR,[10]; 15 mg/kg/day intragastric,441 ± 29 beats/min
same,LVEDP,[10]; 15 mg/kg/day intragastric,11.53 ± 1.83 mmHg
same,LVSP,[10]; 15 mg/kg/day intragastric,143.77 ± 26.82 mmHg
same,MAP,[10]; 15 mg/kg/day intragastric,107.86 ± 31.23 mmHg
same,dP/dt,[10]; 15 mg/kg/day intragastric,4205 ± 412.71 mmHg/s
same,−dP/dt,[10]; 15 mg/kg/day intragastric,−4368.83 ± 662.12 mmHg/s
same,HR,[10]; 30 mg/kg/day intragastric,427 ± 78 beats/min
same,LVEDP,[10]; 30 mg/kg/day intragastric,13 ± 5.96 mmHg
same,LVSP,[10]; 30 mg/kg/day intragastric,126.37 ± 2.28 mmHg
same,MAP,[10]; 30 mg/kg/day intragastric,92.59 ± 10.91 mmHg
same,dP/dt,[10]; 30 mg/kg/day intragastric,4095 ± 433.45 mmHg/s
same,−dP/dt,[10]; 30 mg/kg/day intragastric,−3276.62 ± 283.77 mmHg/s
same,plasma Ascorbic acid level,[11]; 15 mg/kg/day intragastric,26.02 ± 3.95 µmol/L
same,plasma Cysteine level,[11]; 15 mg/kg/day intragastric,31.3 ± 21.32 µmol/L
same,plasma Ascorbic acid level,[11]; 30 mg/kg/day intragastric,39.79 ± 4.33 µmol/L
same,plasma Cysteine level,[11]; 30 mg/kg/day intragastric,35.29 ± 9.73 µmol/L
same,concentration at 8 weeks,[11]; 15 mg/kg/day intragastric,7.42 ± 3.13 µM
same,concentration at 8 weeks,[11]; 30 mg/kg/day intragastric,48 ± 11 µM
same,activity of creatine kinase (CK),creatine kinase (CK),inhibits the enzyme activity
same,contraction of the smooth muscle cells,[12],inhibiting
same,intracellular calcium ion release and outside calcium ion influx through calcium channels,[12],inhibits
"CCCCc1nc(Cl)c(CO)n1Cc1ccc(-c2ccccc2-c2nn[nH]n2)cc1 [Losartan, reference compound]",LDH leaking (release) rate,myocardial cells [3],lower
